Experimental data: the NIST ThermoML archive (doi:10.1016/j.fluid.2013.11.028)

How the values were obtained:
[1] = Liquid; for mass density: 101 kPa, Vibrating tube method; for viscosity: 101.33 kPa, Falling or rolling sphere viscometry
[2] = wn = mass fraction of the nth substance listed; settings: 101 kPa, Liquid; for viscosity: Falling or rolling sphere viscometry; for binary diffusion coefficient: Taylor dispersion method; for mass density: Vibrating tube method
[3] = xn = mol fraction of the nth substance listed; settings: 101 kPa, Liquid, Taylor dispersion method, x1 = 0.2

CNCCCN [N-methyl-1,3-diaminopropane]
[1]
Settings | mass density [kg/m3]
303.15 K | 849.1
308.15 K | 844.7
313.15 K | 840.3
318.15 K | 835.9
323.15 K | 831.5

CN(C)CCCN(C)C [N,N,N',N'-tetramethyl-1,3-propanediamine]
[1]
Settings | mass density [kg/m3]
303.15 K | 774.8
308.15 K | 770.9
313.15 K | 767.4
318.15 K | 765
323.15 K | 761.4

CN(C)CCN(C)C [N,N,N',N'-tetramethyl-1,2-diaminoethane]
[1]
Settings | mass density [kg/m3]
303.15 K | 767.3
308.15 K | 762.9
313.15 K | 759.1
318.15 K | 754.7
323.15 K | 750.3

O [water]
[1]
Settings | viscosity [mPa·s]
303.15 K | 0.789
308.15 K | 0.714
313.15 K | 0.651
318.15 K | 0.598
323.15 K | 0.541

CN(C)CCN(C)C [N,N,N',N'-tetramethyl-1,2-diaminoethane] + O
[2]
Settings | binary diffusion coefficient [m2/s] | mass density [kg/m3] | viscosity [mPa·s]
303.15 K, w1 = 0 | 7.34e-10 | – | –
303.15 K, w1 = 0.1 | 5.61e-10 | 982.9 | 1.34
303.15 K, w1 = 0.2 | 4.62e-10 | 972.6 | 2.338
303.15 K, w1 = 0.3 | 3.74e-10 | 962.1 | 3.963
303.15 K, w1 = 0.4 | 3.12e-10 | 947.8 | 6.207
303.15 K, w1 = 1 | – | 767.3 | –
308.15 K, w1 = 0 | 8.35e-10 | – | –
308.15 K, w1 = 0.1 | 6.29e-10 | 981 | 1.179
308.15 K, w1 = 0.2 | 5.25e-10 | 970 | 1.983
308.15 K, w1 = 0.3 | 4.4e-10 | 958.6 | 3.243
308.15 K, w1 = 0.4 | 3.66e-10 | 943.7 | 4.925
308.15 K, w1 = 1 | – | 762.9 | –
313.15 K, w1 = 0 | 9.38e-10 | – | –
313.15 K, w1 = 0.1 | 7.16e-10 | 979 | 1.046
313.15 K, w1 = 0.2 | 5.74e-10 | 967.3 | 1.704
313.15 K, w1 = 0.3 | 4.91e-10 | 955.1 | 2.705
313.15 K, w1 = 0.4 | 4.25e-10 | 939.5 | 3.941
313.15 K, w1 = 1 | – | 759.1 | –
318.15 K, w1 = 0 | 1.05e-09 | – | –
318.15 K, w1 = 0.1 | 8.01e-10 | 976.7 | 0.933
318.15 K, w1 = 0.2 | 6.38e-10 | 964.4 | 1.481
318.15 K, w1 = 0.3 | 5.53e-10 | 951.5 | 2.287
318.15 K, w1 = 0.4 | 4.61e-10 | 935.3 | 3.205
318.15 K, w1 = 1 | – | 754.7 | –
323.15 K, w1 = 0 | 1.18e-09 | – | –
323.15 K, w1 = 0.1 | 9.51e-10 | 974.3 | 0.839
323.15 K, w1 = 0.2 | 7.5e-10 | 961.4 | 1.301
323.15 K, w1 = 0.3 | 6.29e-10 | 947.8 | 1.96
323.15 K, w1 = 0.4 | 5.31e-10 | 931 | 2.682
323.15 K, w1 = 1 | – | 750.3 | –

NCCNCCN [di(2-aminoethyl)amine]
[1]
Settings | mass density [kg/m3]
303.15 K | 942.1
308.15 K | 937.9
313.15 K | 933.8
318.15 K | 929.6
323.15 K | 925.5

CN(C)CCCN(C)C [N,N,N',N'-tetramethyl-1,3-propanediamine] + O
[2]
Settings | binary diffusion coefficient [m2/s] | mass density [kg/m3] | viscosity [mPa·s]
303.15 K, w1 = 0 | 7.01e-10 | – | –
303.15 K, w1 = 0.1 | 4.86e-10 | 983.3 | 1.345
303.15 K, w1 = 0.2 | 3.74e-10 | 972.5 | 2.335
303.15 K, w1 = 0.3 | 3.05e-10 | 960.1 | 3.923
303.15 K, w1 = 0.4 | 2.56e-10 | 944.6 | 6.081
303.15 K, w1 = 1 | – | 774.8 | –
308.15 K, w1 = 0 | 7.99e-10 | – | –
308.15 K, w1 = 0.1 | 5.53e-10 | 981.4 | 1.183
308.15 K, w1 = 0.2 | 4.41e-10 | 969.8 | 1.985
308.15 K, w1 = 0.3 | 3.57e-10 | 956.7 | 3.192
308.15 K, w1 = 0.4 | 2.89e-10 | 940.6 | 4.853
308.15 K, w1 = 1 | – | 770.9 | –
313.15 K, w1 = 0 | 9.04e-10 | – | –
313.15 K, w1 = 0.1 | 6.16e-10 | 979.3 | 1.051
313.15 K, w1 = 0.2 | 4.83e-10 | 967 | 1.709
313.15 K, w1 = 0.3 | 4.09e-10 | 953.1 | 2.669
313.15 K, w1 = 0.4 | 3.45e-10 | 936.6 | 3.838
313.15 K, w1 = 1 | – | 767.4 | –
318.15 K, w1 = 0 | 1.01e-09 | – | –
318.15 K, w1 = 0.1 | 6.82e-10 | 977 | 0.941
318.15 K, w1 = 0.2 | 5.41e-10 | 964 | 1.488
318.15 K, w1 = 0.3 | 4.58e-10 | 949.5 | 2.264
318.15 K, w1 = 0.4 | 3.82e-10 | 932.5 | 3.182
318.15 K, w1 = 1 | – | 765 | –
323.15 K, w1 = 0 | 1.08e-09 | – | –
323.15 K, w1 = 0.1 | 7.48e-10 | 974.6 | 0.846
323.15 K, w1 = 0.2 | 6.07e-10 | 961 | 1.311
323.15 K, w1 = 0.3 | 5.14e-10 | 945.8 | 1.945
323.15 K, w1 = 0.4 | 4.32e-10 | 928.4 | 2.681
323.15 K, w1 = 1 | – | 761.4 | –

NCCNCCN [di(2-aminoethyl)amine] + O
[2]
Settings | binary diffusion coefficient [m2/s] | mass density [kg/m3] | viscosity [mPa·s]
303.15 K, w1 = 0 | 7.45e-10 | – | –
303.15 K, w1 = 0.1 | 7.01e-10 | 998.5 | 1.211
303.15 K, w1 = 0.2 | 6.64e-10 | 1002.9 | 2.011
303.15 K, w1 = 0.3 | 6.14e-10 | 1009.8 | 3.572
303.15 K, w1 = 0.4 | 5.57e-10 | 1016.2 | 7.31
303.15 K, w1 = 1 | – | 942.1 | –
308.15 K, w1 = 0 | 8.43e-10 | – | –
308.15 K, w1 = 0.1 | 7.93e-10 | 996.7 | 1.08
308.15 K, w1 = 0.2 | 7.61e-10 | 1000.8 | 1.751
308.15 K, w1 = 0.3 | 7.14e-10 | 1007.2 | 3.015
308.15 K, w1 = 0.4 | 6.6e-10 | 1013 | 5.915
308.15 K, w1 = 1 | – | 937.9 | –
313.15 K, w1 = 0 | 9.5e-10 | – | –
313.15 K, w1 = 0.1 | 8.95e-10 | 994.8 | 0.97
313.15 K, w1 = 0.2 | 8.52e-10 | 998.7 | 1.54
313.15 K, w1 = 0.3 | 8.13e-10 | 1004.5 | 2.582
313.15 K, w1 = 0.4 | 7.41e-10 | 1009.9 | 4.859
313.15 K, w1 = 1 | – | 933.8 | –
318.15 K, w1 = 0 | 1.03e-09 | – | –
318.15 K, w1 = 0.1 | 1.01e-09 | 992.8 | 0.88
318.15 K, w1 = 0.2 | 9.38e-10 | 996.3 | 1.366
318.15 K, w1 = 0.3 | 8.82e-10 | 1001.8 | 2.234
318.15 K, w1 = 0.4 | 8.55e-10 | 1006.7 | 4.049
318.15 K, w1 = 1 | – | 929.6 | –
323.15 K, w1 = 0 | 1.19e-09 | – | –
323.15 K, w1 = 0.1 | 1.12e-09 | 990.6 | 0.799
323.15 K, w1 = 0.2 | 1.06e-09 | 993.9 | 1.221
323.15 K, w1 = 0.3 | 1.01e-09 | 998.9 | 1.95
323.15 K, w1 = 0.4 | 9.61e-10 | 1003.4 | 3.302
323.15 K, w1 = 1 | – | 925.5 | –

OCCO [1,2-ethanediol] + O
[3]
Settings | binary diffusion coefficient [m2/s]
303.15 K | 8.21e-10
308.15 K | 9.03e-10
313.15 K | 9.98e-10
318.15 K | 1.09e-09
323.15 K | 1.2e-09

CNCCCN [N-methyl-1,3-diaminopropane] + O
[2]
Settings | binary diffusion coefficient [m2/s] | mass density [kg/m3] | viscosity [mPa·s]
303.15 K, w1 = 0 | 8.45e-10 | – | –
303.15 K, w1 = 0.1 | 7.35e-10 | 988.5 | 1.231
303.15 K, w1 = 0.2 | 6.87e-10 | 983.9 | 2.005
303.15 K, w1 = 0.3 | 6.4e-10 | 980.7 | 3.41
303.15 K, w1 = 0.4 | 6.08e-10 | 975.9 | 5.515
303.15 K, w1 = 1 | – | 849.1 | –
308.15 K, w1 = 0 | 9.56e-10 | – | –
308.15 K, w1 = 0.1 | 8.63e-10 | 986.7 | 1.09
308.15 K, w1 = 0.2 | 7.69e-10 | 981.6 | 1.731
308.15 K, w1 = 0.3 | 7.26e-10 | 977.7 | 2.823
308.15 K, w1 = 0.4 | 6.92e-10 | 972.2 | 4.451
308.15 K, w1 = 1 | – | 844.7 | –
313.15 K, w1 = 0 | 1.05e-09 | – | –
313.15 K, w1 = 0.1 | 9.36e-10 | 984.7 | 0.976
313.15 K, w1 = 0.2 | 8.72e-10 | 979.1 | 1.512
313.15 K, w1 = 0.3 | 8.25e-10 | 974.5 | 2.391
313.15 K, w1 = 0.4 | 7.77e-10 | 968.4 | 3.66
313.15 K, w1 = 1 | – | 840.3 | –
318.15 K, w1 = 0 | 1.18e-09 | – | –
318.15 K, w1 = 0.1 | 1.05e-09 | 982.6 | 0.887
318.15 K, w1 = 0.2 | 9.72e-10 | 976.4 | 1.333
318.15 K, w1 = 0.3 | 9.22e-10 | 971.3 | 2.059
318.15 K, w1 = 0.4 | 8.73e-10 | 964.6 | 2.979
318.15 K, w1 = 1 | – | 835.9 | –
323.15 K, w1 = 0 | 1.31e-09 | – | –
323.15 K, w1 = 0.1 | 1.18e-09 | 980.2 | 0.808
323.15 K, w1 = 0.2 | 1.09e-09 | 973.7 | 1.184
323.15 K, w1 = 0.3 | 1.03e-09 | 967.9 | 1.769
323.15 K, w1 = 0.4 | 9.77e-10 | 960.7 | 2.525
323.15 K, w1 = 1 | – | 831.5 | –
